Data: PMC5310922, “A high-throughput phenotypic screen identifies clofazimine as a potential treatment for cryptosporidiosis” (PLoS Neglected Tropical Diseases, 2017)
Like-named read-outs stand apart in the source and are kept apart here.

Legend:
[1] = tested on: Cryptosporidium hominis (TU502); experiment: C. hominis proliferation in HCT-8 cells, 48 h high-content imaging assay; type: cell-based; settings: Cryptosporidium hominis
Protocol: Methods for continuous, in vitro cultivation of Cryptosporidium spp. have not been well established. Instead, in vivo oocyst propagation of C. parvum is performed in calves, a more promiscuous Cryptosporidium species for animal and human infections. For C. hominis, gnotobiotic piglets are the primary means of propagation. The calf is the more accessible model, making C. parvum the more convenient species to screen. However, C. hominis is equally clinically relevant with regards to human cryptosporidiosis. […] High purity powders of the 10 filtered C. parvum Bioactives screen hits and both GHCDL screen hits were tested against C. hominis (TU502) to confirm activity against both species.
Cells were then plated (5 μL/well) into 1536-well assay plates at a density of 5.5×10^5 cells/mL (2,750 cells/well).
C. parvum oocysts (Iowa strain, isolated from infected calves) were purchased from the Sterling Parasitology Laboratory, University of Arizona, and stored at 4°C for ≤ 3 months in an antibiotic solution (0.01% Tween 20 containing 100 U/mL penicillin and 100 μg/mL gentamicin). C. hominis oocysts (TU502, isolated from gnotobiotic piglets) were purchased from the Tzipori Laboratory, Cummings School of Veterinary Medicine, Tufts University, and stored at 4°C for ≤ 2 weeks in an antibiotic solution (100 U/mL penicillin and 100 μg/mL streptomycin). For infection of assay plates, 24 h after cell seeding, oocysts were excysted and prepared for inoculation as previously described. Briefly, the oocysts were diluted into 1 mL pre-warmed 10 mM HCl and then incubated in a 37°C water bath for 10 min. Oocysts were then pelleted at 3,000×g for 1 min in a microcentrifuge (Thermo), and the supernatant was carefully aspirated. Oocysts were resuspended in 2 mM sodium taurocholate in DPBS++ (with 0.9 mM CaCl2 and 0.5 mM MgCl2) and incubated at room temperature for 20 min. After incubation in bile salts, the oocysts were diluted 1:100 and free sporozoites and intact oocysts were enumerated to determine the percentage of excystation.
Plates were then washed twice with phosphate buffered saline (PBS). […] To prevent non-specific binding, the cells were blocked with SuperBlock™ T20 blocking agent (Thermo) for 1 h at room temperature. Cryptosporidium parasites were stained with 1 μg/mL fluorescein isothiocyanate (FITC)-conjugated Vicia villosa lectin (Vector Laboratories) in 1:10 diluted SuperBlock™ in PBS-T, supplemented with 3 μM 4',6-diamidino-2-phenylindole (DAPI) to visualize host cell nuclei. Staining was for 1 h at room temperature in the dark. Finally, cells were washed twice with PBS-T and the plates were sealed with adhesive foil. The plates were imaged with a CellInsight CX5 High Content Screening Platform (Thermo) with a 10× objective. […] The software identified primary objects (HCT-8 host cells) and spots within allowed distances to the nuclei (Cryptosporidium). Both cytotoxicity against HCT-8 cells (number of nuclei relative to DMSO-treated controls) and Cryptosporidium inhibition (spot counts relative to DMSO-treated controls) were assessed.
Images were processed by the HCS Studio Scan software, and Selected Object Count (HCT-8 cells) and Spot Count (Cryptosporidium) were analyzed in Genedata Screener (v13.0-Standard). Spot Count and Selected Object Count were normalized to neutral controls minus inhibitors (floxuridine for Spot Count, and puromycin for Selected Object Count).

[2] = set-up: method as in PMID 2656045; settings: cited from earlier work
C. parvum = experiment: Washout assay: 3-h treatments over the asexual life cycle of C. parvum; settings: 3-h treatment then washout; even at 3×EC99
Protocol: We examined short, three-hour compound treatments of in vitro cultures, followed by compound washout, that covered the complete asexual life cycle, believed to be 13–15 h post invasion [36]. […] The treatment interval lasted 3 h before washout with fresh medium; infected cells were allowed to grow until 48 h post infection before fixation. […] As CFZ is very lipophilic, we sought to determine whether intracellular accumulation was affecting the strong inhibition across each time point.
Infected cells were treated in six 3-h increments over the course of 15 h (the presumed in vitro asexual lifecycle of C. parvum). HCT-8 cells were seeded (25 μL/well) into clear-bottomed 384-well plates (Greiner) at a density of 6.0×10^5 cells/mL (15,000 cells/well) in assay medium, and allowed to grow 24 h at 37°C with 5% CO2 in a humidified tissue culture incubator, covered with a custom metal lid (The Genomics Institute of the Novartis Research Foundation) to reduce evaporation. After 24 h, and 2 h before infecting with C. parvum oocysts (time -2 hpi), the treatment time course was initiated. […] DMSO was used as a negative control. Cell medium was removed from designated wells and replaced with medium containing either compound or DMSO. […] Plates were then spun at 150×g for 3 min, and kept at 37°C with 5% CO2 in a humidified tissue culture incubator during drug treatment intervals. At the end of each 3 h time point, infected cells were carefully washed three times with fresh, pre-warmed assay medium, and the next set of wells for the subsequent time point were treated. The final time point extended to 18 h, to cover re-invasion of merozoites into new HCT-8 cells. After the final compound treatment was washed off, infected cells were allowed to grow until 48 h post infection.

Cryptosporidium = tested on: Cryptosporidium; set-up: method as in PMID 23878324; settings: once per day for ten consecutive days at 100 mg/kg; cited from earlier work
[3] = in HCT-8 cells, 48 h, value (SD; n), read-out: C. hominis 48H Assay EC50 [µM] (SD; n)

| EC50 [1, 3] [µM] | Structure (SMILES) | EC50 ([1]; HCT-8, same in vitro host cell line, read-out: EC50 against C. hominis) [µM] | drug half-life [2] | inhibition of parasite growth at all time points other than 10–13 h post infection (C. parvum) [%] | efficacy in mouse model of chronic cryptosporidiosis (Cryptosporidium) |
| --- | --- | --- | --- | --- | --- |
| 0.341 | CC(C)/N=c1\cc2n(-c3ccc(Cl)cc3)c3ccccc3nc-2cc1Nc1ccc(Cl)cc1 [Clofazimine] | 0.34 | ~ 70 days |  |  |
| 0.457 | CCOc1ccc2cc(-c3nn(CC4CCN(C)CC4)c4ncnc(N)c34)ccc2c1 [BKI-1294] |  |  | < 60 | demonstrated efficacy |
